Series [1] deals with S. aureus (ATCC 29213). Kind of series: Macromolecular synthesis assays. The format is cell-based, Staphylococcus aureus. Particulars: Staphylococcus aureus, ATCC29213; positive control, 16 μg/mL; read-out: Inhibition of cell-wall (peptidoglycan) biosynthesis. The text has this:
Mechanism of Action of the Quinazolinones. The mode of action of 2 was investigated by macromolecular synthesis assays in S. aureus in the logarithmic phase, which monitor incorporation of radiolabeled precursors [methyl-^3H]-thymidine, [5-^3H]-uridine, L-[4,5-^3H]-leucine, or D-[2,3-^3H]-alanine into DNA, RNA, protein, or cell wall (peptidoglycan), respectively. Inhibition of radiolabeled precursor incorporation by 2 at a concentration of half the MIC was compared with those of known inhibitors of each pathway (ciprofloxacin, rifampicin, tetracycline, and fosfomycin, respectively).
The mode of action of 2 was investigated by macromolecular synthesis assays in S. aureus in the logarithmic phase (Miller, A A et al. Antimicrob. Agents Chemother. 52, 2806-12 (2008)), which monitor incorporation of radiolabeled precursors [methyl-^3H]-thymidine, [5-^3H]-uridine, L-[4,5-^3H]-leucine, or D-[2,3-^3H]-alanine into DNA, RNA, protein, or cell wall (peptidoglycan), respectively.
The incorporation of radiolabeled precursors—[methyl-^3H]-thymidine, [5-^3H]-uridine, L-[4,5-^3H]-leucine, or D-[2,3-^3H]-alanine—into DNA, RNA, protein, or peptidoglycan, respectively, in logarithmically growing S. aureus (ATCC 29213) was measured using a previously published method, with aliquots taken every 20 min over a 120-min incubation period (Wilson et al., Antimicrob. Agents Chemother. 39, 1925-33 (1995)).

Series [2] relates to S. aureus NRS119. Kind of series: MIC, CLSI broth microdilution, S. aureus NRS119. The format is cell-based, Staphylococcus aureus. As for the experimental part: (§1) MICs were evaluated following the CLSI microdilution method in BBL™ Mueller-Hinton II broth (Wikler et al., Clinical Laboratory Standards Institute Document M7-A7, 29 (2009)). Briefly, two-fold serial dilutions of compound were prepared in triplicate in 96-well plates and inoculated with 5×10^5 cfu/mL of the bacterial suspension. Plates were incubated at 37° C. for 16-20 hours.

Series [3] concerns S. haemolyticus ATCC 29970. Briefly: MIC, CLSI broth microdilution, S. haemolyticus ATCC 29970. Format: cell-based. As for the experimental part:
as §1

In series [4] the test system is S. aureus VRS2. Briefly: MIC, CLSI broth microdilution, S. aureus VRS2. The format is cell-based, Staphylococcus aureus. As for the experimental part:
as §1

For series [5], the system named is S. aureus NRS128. Briefly: MIC, CLSI broth microdilution, S. aureus NRS128. The format is cell-based, Staphylococcus aureus. Particulars: Table 2.1, S. aureus NRS128. As for the experimental part:
as §1

Series [6] concerns S. aureus NRS123. Kind of series: MIC, broth microdilution, S. aureus NRS123. The format is cell-based. The settings on record: Staphylococcus aureus, NRS123. How it is done:
as §1

Series [7] concerns S. aureus ATCC 29213 (MSSA). Kind of series: MIC, CLSI broth microdilution, S. aureus ATCC 29213. The format is cell-based, Staphylococcus aureus. Particulars: Table 2.1, S. aureus ATCC 29213. How it is done: as §1
Series [8] concerns S. aureus NRS100. Briefly: MIC, CLSI broth microdilution, S. aureus NRS100. Format: cell-based, Staphylococcus aureus. As for the experimental part:
as §1

Series [9] has as its system S. aureus VRS1. Kind of series: MIC, CLSI broth microdilution, S. aureus VRS1. Format: cell-based, Staphylococcus aureus. As for the experimental part:
as §1

In series [10] the test system is S. epidermidis ATCC 35547. Kind of series: MIC, CLSI broth microdilution, S. epidermidis ATCC 35547. The format is cell-based. As for the experimental part: as §1
In series [11] the test system is S. aureus NRS70. Kind of series: MIC, broth microdilution, S. aureus NRS70. Format: cell-based, Staphylococcus aureus. How it is done: as §1
Series [12] deals with S. aureus NRS120. Briefly: MIC, CLSI broth microdilution, S. aureus NRS120. Format: cell-based, Staphylococcus aureus. As for the experimental part:
as §1

For series [13] the following is noted: cited from earlier work.

Here are results for three compounds from patent publication US10329262B2, “Quinazolinone antibiotics” (priority 2013, dated 2019).

SMILES strings stand for the structures. In brackets after ≈: the same amount, converted by molar mass. Where only a bound is given, the exact number is not on record here.

For `C[C@@H]1O[C@@H]1P(=O)(O)O` [fosfomycin, reference compound], the inhibition at 16 µg/mL in series [1] came out at 64 ± 8%.

Take `CN[C@H](CC(C)C)C(=O)N[C@H]1C(=O)N[C@@H](CC(N)=O)C(=O)N[C@H]2C(=O)N[C@H]3C(=O)N[C@H](C(=O)N[C@H](C(=O)O)c4cc(O)cc(O)c4-c4cc3ccc4O)[C@H](O)c3ccc(c(Cl)c3)Oc3cc2cc(c3O[C@@H]2O[C@H](CO)[C@@H](O)[C@H](O)[C@H]2O[C@H]2C[C@](C)(N)[C@H](O)[C@H](C)O2)Oc2ccc(cc2Cl)[C@H]1O` [vancomycin]: the MIC in series [2] (Staphylococcus aureus, NRS119) is 2 µg/mL (≈ 1.38 µM); in series [3] (Staphylococcus haemolyticus, ATCC29970) it was 2 µg/mL (≈ 1.38 µM); in series [4] (Staphylococcus aureus, VRS2), 64 µg/mL (≈ 44.2 µM); in [6] it was 1 µg/mL (≈ 0.69 µM); in [8] (Staphylococcus aureus, NRS100) it was 2 µg/mL (≈ 1.38 µM); in [9] (Staphylococcus aureus, VRS1), more than 256 µg/mL. For the same compound, the MIC was determined as 64 µg/mL (≈ 44.2 µM) in [10] (Staphylococcus epidermidis, ATCC35547); 1 µg/mL (≈ 0.69 µM) in series [11] (Staphylococcus aureus, NRS70); 2 µg/mL (≈ 1.38 µM) in series [12] (Staphylococcus aureus, NRS120). The In vitro AB activity (MIC) is 2 µg/mL in series [2] (Table 2.1, S. aureus NRS119); 2 µg/mL in series [3] (Table 2.1, S. haemolyticus ATCC 29970); 64 µg/mL in series [4] (Table 2.1, S. aureus VRS2); 1 µg/mL in series [5]; 1 µg/mL in series [7]; 2 µg/mL in series [8] (Table 2.1, S. aureus NRS100). Further, the In vitro AB activity (MIC) was found to be 512 µg/mL in series [9] (Table 2.1, S. aureus VRS1); 16 µg/mL in series [10] (Table 2.1, S. epidermidis ATCC 35547); 1 µg/mL in series [11] (Table 2.1, S. aureus NRS70); 2 µg/mL in [12] (Table 2.1, S. aureus NRS120).

For `CCCCCCCCCC(=O)N[C@@H](Cc1c[nH]c2ccccc12)C(=O)N[C@H](CC(N)=O)C(=O)N[C@@H](CC(=O)O)C(=O)N[C@@H]1C(=O)NCC(=O)N[C@@H](CCCN)C(=O)N[C@@H](CC(=O)O)C(=O)N[C@H](C)C(=O)N[C@@H](CC(=O)O)C(=O)NCC(=O)N[C@H](CO)C(=O)N[C@@H]([C@H](C)CC(=O)O)C(=O)N[C@@H](CC(=O)c2ccccc2N)C(=O)O[C@@H]1C` [daptomycin], in series [13], the Plasma protein binding is more than 91%.
